Counter-ions that a name gives are not always drawn. Marks after values point to notes of the source that are not given here.
Tests used:
[1] = target: T1, human activated tissue kallikrein (Homo sapiens, UniProt P06870); assay: Measurement of tissue kallikrein inhibitory activity; type: biochemical; conditions: activated tissue kallikrein activity (initial rate) inhibited by 50%; substrate D-valyl-L-leucyl-L-arginyl-p-nitroanilide; 37° C.
T1 construct: 6xHis (C); made in house; host or cells: baculovirus / Sf21 insect cells
Description: Measurement of tissue kallikrein inhibitory activity
Expression and purification of human activated tissue kallikrein was performed according to the method of Angermann (A. Angermann et al., Eur. J. Biochem., 206, 225-233 (1992)). That is, a gene was prepared by adding 6 residues of histidine to the C-terminal side of human pancreas kallikrein gene (D. Fukuchima et al, Biochemistry, 24, 8037-8043 (1985)), and tissue prokallikrein was expressed by a system using a baculovirus-insect cell (Sf21). Purified human tissue kallikrein was obtained from the culture supernatant by purification using a nickel chelate column (Ni-NTA, QIAGEN K. K.), digestion with TPCK trypsin and further nickel chelate column. To a solution (100 μL) of the human activated tissue kallikrein adjusted to 0.0625 μg/mL with an assay buffer (100 mM tris-hydrochloride buffer (pH 8.4) containing 0.2M NaCl, 0.02% Tween 20, and 0.1% PEG 6000) was added an assay buffer (containing 2% DMSO) solution (50 μL) of the test compound adjusted to the objective concentration, and the mixture was incubated at 37° C. for 10 minutes (min=minutes). Then, a 4 mM solution (50 μL) of D-valyl-L-leucyl-L-arginyl-p-nitroanilide hydrochloride (BACHEM AG) adjusted with the assay buffer was added, the absorbance was measured and the reaction rate was determined. As a control, a DMSO solution (50 μL) was added instead of the solution of the test compound. Absorbance was measured at a wavelength of 405 nm at 60 second intervals for 90 min using a Benchmark Plus Microplate Reader (BIO RAD). The negative logarithm value (abbreviated as pIC50) of the test compound concentration when the activated tissue kallikrein activity (initial rate) was inhibited by 50% without addition of the test compound was used as an index of the activated tissue kallikrein inhibitory activity.

[2] = system: DSS-induced enteritis model; assay: Efficacy evaluation in DSS-induced enteritis model; type: in vivo, female CBA mice; conditions: mice, 5% DSS, relative to non-treatment group = 100%, mean ± standard error
Text: Efficacy evaluation in DSS-induced enteritis model
The dextran sodium sulfate (DSS)-induced enteritis model was subjected to evaluation by a partly-modified methods of Gastroenterology, 98, 694-702 (1990) and Cytokine, 11, 890-896 (1998). A 5 (w/v) % DSS (manufactured by Sigma, MW 5,000) solution was freely taken by female CBA mice (CHARLES RIVER LABORATORIES JAPAN, INC.) for a given period to induce enteritis. A solution of the test compound adjusted to the objective concentration with a 0.5 (w/v) % tragacanth gum (TG) solution was orally administered at 5 mL/kg. Upon autopsy, the length, weight and the like of the large intestine were evaluated and used as an index of the onset of inflammatory enteritis. As a control, a mouse, to which a 0.5 (w/v) % TG solution was orally administered at 5 mL/kg instead of the test compound, was used. The length and weight of the large intestine are expressed as the relative value when the average value of the non-treatment group is 100%. As a Reference Example, the values obtained by oral administration of a positive control drug, salazosulfapyridine, instead of the test compound are shown. […] For testing the significant difference, Dunnett's t-test was used, and statistic significance as shown by P<0.05 and P<0.01 relative to the TG control group is shown in the Table with * and **, respectively.

[3] = system: acetic acid writhing model; assay: Efficacy evaluation in acetic acid writhing model; type: in vivo, male ICR mice; conditions: mice, writhing number 5 to 20 min after 0.9% acetic acid i.p., mean ± standard error
Description: Efficacy evaluation in acetic acid writhing model
The acetic acid writhing model was subjected to evaluation according to the method of European Journal of Pharmacology, 352, 47-52 (1998). To be specific, a solution of the test compound adjusted to the objective concentration with a 0.5 (w/v) % tragacanth gum solution was orally administered to male ICR mice (CHARLES RIVER LABORATORIES JAPAN, INC.) at 5 mL/kg, and a 0.9% acetic acid solution adjusted with a physiological saline was intraperitoneally administered 60 min later at 5 mL/kg. The number of writhing for 15 min from 5 min to 20 min after administration of a 0.9% acetic acid solution was counted and taken as the writhing number of the test compound. A mouse, to which a 0.5 (w/v) % tragacanth gum (TG) solution was orally administered at 5 ml/kg instead of the test compound, was used as a control. The suppression rate (%) was calculated by subtracting the relative value of each mouse from the relative value when the average value of the control group is 100%. As a Reference Example, the value obtained by oral administration of a positive control drug, indomethacin, instead of the test compound is shown. […] For testing the significant difference, Dunnett's t-test was used, and statistic significance as shown by P<0.05 and P<0.01 relative to the TG control group is shown in the Table with * and **, respectively.

T1 sequence (P06870 25-262): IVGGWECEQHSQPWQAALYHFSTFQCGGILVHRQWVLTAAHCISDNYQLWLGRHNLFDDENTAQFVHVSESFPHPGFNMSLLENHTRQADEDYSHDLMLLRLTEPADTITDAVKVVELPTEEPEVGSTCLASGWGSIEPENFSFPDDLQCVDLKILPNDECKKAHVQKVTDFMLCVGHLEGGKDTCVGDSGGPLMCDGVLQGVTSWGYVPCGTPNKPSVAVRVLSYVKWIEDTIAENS

SMILES | IC50 [1] | other results
CC(C)[C@H](CCNC(=O)Cc1c[nH]c2ccccc12)Nc1ccc(C(F)(F)F)cc1 [Compound A-51] | 0.129 µM | –
O=C(O)c1cc(/N=N/c2ccc(S(=O)(=O)Nc3ccccn3)cc2)ccc1O [salazosulfapyridine, reference compound] | – | large intestine length (%) ([2]; 200 mg/kg oral): 78.1 ± 1.5* %; large intestine weight (%) ([2]; 200 mg/kg oral): 123.0 ± 1.9** %
CCCCN1CCC(O)c2cc(C(F)(F)F)ccc21 (centres unmarked) [Compound E-4] | 0.257 µM | –
CC(C)[C@H](CNC(=O)[C@H](N)Cc1c[nH]c2ccccc12)Nc1ccc(C(F)(F)F)cc1N [Compound A-60] | 0.135 µM | –
O=C(Cc1ccccc1)NC[C@H]1CCCN1c1ccc(C(F)(F)F)cc1 [Compound A-39] | 0.0417 µM | –
O=C(Cc1ccccc1)NC[C@@H]1CCCN1c1ccc(C(F)(F)F)cc1 [Compound A-40] | 0.245 µM | –
O=C(N[C@H]1CCN(c2ccc(C(F)(F)F)cc2)C1)C1CCN(c2ccncc2)CC1 [Compound B-2] | 0.204 µM | –
CC(C)[C@H](CNC(=O)C1(c2ccccc2)CC1)Nc1ccc(C(F)(F)F)cc1 [Compound A-16] | 0.263 µM | –
CCNc1ccc(C(F)(F)F)cc1CO [Compound E-2] | 0.112 µM | –
CC(C)[C@H](CNC(=O)[C@@H](N)Cc1c[nH]c2ccccc12)Nc1ccc(C(F)(F)F)cc1N [Compound A-57] | 0.0363 µM | –
CC(C)[C@H](CC(=O)NCCc1ccccc1)Nc1ccc(C(F)(F)F)cc1 [Compound C-42] | 0.129 µM | –
CC(C)[C@H](CC(=O)NCCc1ccccn1)Nc1ccc(C(F)(F)F)cc1 [Compound C-43] | 0.0912 µM | –
CC(C)[C@H](CNC(=O)[C@@H](O)c1ccccc1)Nc1ccc(C(F)(F)F)cc1 [Compound A-11] | 0.158 µM | –
CC(C)[C@H](CNC(=O)/C=C/c1ccncc1)Nc1ccc(C(F)(F)F)cc1 [Compound A-13] | 0.178 µM | –
CC(C)[C@H](CNC(=O)CCc1c[nH]c2ccccc12)Nc1ccc(C(F)(F)F)cc1 [Compound A-5] | 0.0501 µM | –
CCN1CCC(O)c2cc(C(F)(F)F)ccc21 (centres unmarked) [Compound E-6] | 0.251 µM | large intestine length (%) ([2]; 10 mg/kg oral): 85.2 ± 2.4** %; large intestine weight (%) ([2]; 10 mg/kg oral): 117.5 ± 5.1** %; large intestine length (%) ([2]; 30 mg/kg oral): 87.9 ± 2.0** %; large intestine weight (%) ([2]; 30 mg/kg oral): 110.7 ± 4.1** %; suppression rate (%) ([3]; 3 mg/kg oral): 58.7 ± 7.0** %; suppression rate (%) ([3]; 10 mg/kg oral): 58.7 ± 5.8** %; suppression rate (%) ([3]; 30 mg/kg oral): 64.9 ± 8.3** %
CC(C)[C@H](CNC(=O)CCN)Nc1ccc(C(F)(F)F)cc1 [Compound A-3] | 0.0257 µM | –
CC(C)[C@H](CNC(=O)c1cccc(N(C)C)c1)Nc1ccc(C(F)(F)F)cc1 [Compound A-10] | 0.145 µM | –
CC(C)[C@H](CCNC(=O)C1CCN(C(C)C)CC1)Nc1ccc(C(F)(F)F)cc1 [Compound A-52] | 0.151 µM | –
O=C(Cc1c[nH]c2ccccc12)NC[C@H]1CCCN1c1ccc(C(F)(F)F)cc1 [Compound A-41] | 0.209 µM | –
CC(C)[C@H](CNC(=O)Cc1ccccn1)Nc1ccc(C(F)(F)F)cc1N [Compound A-59] | 0.0832 µM | –

SMILES | IC50 [1] | other results
CC(C)[C@H](CCNC(=O)c1ccc2ncccc2c1)Nc1ccc(C(F)(F)F)cc1 [Compound A-49] | 0.0468 µM | –
CC(C)[C@H](CNC(=O)[C@@H](N)C(C)C)Nc1ccc(C(F)(F)F)cc1 [Compound A-15] | 0.182 µM | –
CC(C)[C@H](CC(=O)NCc1ccccc1)Nc1ccc(C(F)(F)F)cc1 [Compound C-40, (3S)-N-benzyl-4-methyl-3-{[4-(trifluoromethyl)phenyl]amino}pentanamide] | 0.0646 µM | –
CC(C)[C@H](CNC(=O)Cc1c[nH]c2ccccc12)Nc1ccc(C(F)(F)F)cc1N [Compound A-58] | 0.049 µM | –
CC(C)[C@H](CCNC(=O)Cc1cccs1)Nc1ccc(C(F)(F)F)cc1 [Compound A-50] | 0.107 µM | –
CC(C)[C@H](CCNC(=O)C1CCN(c2ccncc2)CC1)Nc1ccc(C(F)(F)F)cc1 [Compound A-48] | 0.0468 µM | –
CC(C)[C@H](CNC(=O)[C@@H](N)CO)Nc1ccc(C(F)(F)F)cc1 [Compound A-18] | 0.309 µM | –
CC(C(=O)NC[C@H](Nc1ccc(C(F)(F)F)cc1)C(C)C)c1ccc(-c2ccccc2)c(F)c1 (some centres unmarked) [Compound A-6] | 0.0575 µM | –
CC(C)[C@H](CNC(=O)[C@H](N)c1ccccc1)Nc1ccc(C(F)(F)F)cc1 [Compound A-9] | 0.102 µM | –
CC(C)[C@H](CNC(=O)[C@@H](C)N)Nc1ccc(C(F)(F)F)cc1 [Compound A-17] | 0.295 µM | –
CC(C)[C@H](CNC(=O)C1CCN(c2ccncc2)CC1)Nc1ccc(C(F)(F)F)cc1 [Compound A-14] | 0.182 µM | –
CC(C)[C@H](CNC(=O)Cc1ccccc1)Nc1ccc(C(F)(F)F)cc1N [Compound A-56, N-((2R)-2-{[2-amino-4-(trifluoromethyl)phenyl]amino}-3-methylbutyl)-2-phenylacetamide trifluoroacetate] | 0.0501 µM | –
CC(C)[C@H](CNC(=O)C(=O)c1c[nH]c2ccccc12)Nc1ccc(C(F)(F)F)cc1 [Compound A-12] | 0.162 µM | –
CC(C)[C@H](CC(=O)NCc1ccccn1)Nc1ccc(C(F)(F)F)cc1 [Compound C-41] | 0.302 µM | –
CC(C)[C@H](CNC(=O)Cc1cccnc1)Nc1ccc(C(F)(F)F)cc1 [Compound A-7] | 0.0851 µM | –
CC(C)[C@H](CNC(=O)Cc1c[nH]c2ccccc12)Nc1ccc(C(F)(F)F)cc1 [Compound A-4] | 0.0295 µM | –
CC(C)[C@H](CCNC(=O)c1ccccc1)Nc1ccc(C(F)(F)F)cc1 [Compound A-47, N-((3S))-4-methyl-3-{[4-(trifluoromethyl)phenyl]amino}pentyl)benzamide trifluoroacetate] | 0.209 µM | –
CC(C)[C@H](CNC(=O)Cc1ccccc1)Nc1ccc(C(F)(F)F)cc1CO [Compound A-55, N-((2R)-2-{[2-(hydroxymethyl)-4-(trifluoromethyl)phenyl]amino}-3-methylbutyl)-2-phenylacetamide] | 0.02 µM | –
CC(C)[C@H](CNC(=O)Cc1ccccc1)Nc1ccc(C(F)(F)F)cc1 [Compound A-1, N-((2R)-3-methyl-2-{[4-(trifluoromethyl)phenyl]amino}butyl)-2-phenylacetamide trifluoroacetate] | 0.0219 µM | –
CCCN1CCC(O)c2cc(C(F)(F)F)ccc21 (centres unmarked) [Compound E-3, 1-propyl-6-(trifluoromethyl)-1,2,3,4-tetrahydroquinolin-4-ol] | 0.245 µM | –
COc1ccc2c(c1)c(CC(=O)O)c(C)n2C(=O)c1ccc(Cl)cc1 [Indomethacin, indomethacin, reference compound] | – | suppression rate (%) ([3]; 10 mg/kg oral): 64.1 ± 10.8** %
